How the values were obtained:
[1] = tested on: A2780 human ovarian tumor xenograft; assay: In vivo oral antitumor activity vs Sc A2780; settings: po gavage; for Oral Efficacy vs. Sc A2780 Log Cell Kill: q2d x 5, at optimal or maximum tolerated dose of Table III (mg/kg per administration), log cell kill = (T-C)/(TVDT x 3.32); for Oral Efficacy vs. Sc A2780 (Cures/Treated): q2d x 5, same dose as log cell kill, cure = tumor of 35 mg or less at termination
Experimental: The experiments were carried out using athymic (“nude”) mice. […] The compound was administered at the dose indicated in Table III, namely, once daily every other day for five treatments (i.e. q2dx5).

[2] = administered orally; quote from WO98/53811; cited from earlier work
human or animal models = settings: cited from earlier work; for Oral activity in human or animal models: prior art
human tumor xenografts = assay: Orally administered paclitaxel against human tumor xenografts; settings: oral; athymic mice or athymic rats
tumors in mice = settings: AACR 1999 abstract 1905; cited from earlier work

CCCCOC(=O)NC(c1ccccc1)C(O)C(=O)OC1CC2(O)C(OC(=O)c3ccccc3)C3C4(OC(=O)OC)COC4CC(O)C3(C)C(=O)C(OC(C)=O)C(=C1C)C2(C)C (centres unmarked) [Ih, 4-Deacetyl-3′-N-debenzoyl-3′-N-nbutoxycarbonyl-4-O-methoxycarbonyl-paclitaxel]
Oral Efficacy vs. Sc A2780 Log Cell Kill [1]: 1.0
Oral Efficacy vs. Sc A2780 (Cures/Treated) [1]: 1/8

CC(=O)O[C@H]1C(=O)[C@@]2(C)[C@H]([C@H](OC(=O)c3ccccc3)[C@]3(O)C[C@H](OC(=O)[C@H](O)[C@@H](NC(=O)c4ccccc4)c4ccccc4)C(C)=C1C3(C)C)[C@]1(OC(C)=O)CO[C@@H]1C[C@@H]2O [paclitaxel]
Oral absorption [2]: less than 1%
Antitumor activity on oral administration (human or animal models; oral, up to 160 mg/kg/day, Suffness et al.): no evidence of antitumor activity
Oral activity in human or animal models (human or animal models): no oral activity
Activity of orally administered paclitaxel against human tumor xenografts (human tumor xenografts): unsuccessful

COC(=O)O[C@@]12COC1C[C@H](O)[C@@]1(C)C(=O)[C@H](OC(C)=O)C3=C(C)[C@@H](OC(=O)[C@H](O)[C@@H](NC(=O)OC(C)(C)C)C(C)(C)C)C[C@@](O)([C@@H](OC(=O)c4ccccc4)C21)C3(C)C (some centres unmarked) [Ia, 3′-tert-Butyl-3′-N-tert-butyloxycarbonyl-4-deacetyl-3′-dephenyl-3′-N-debenzoyl-4-O-methoxycarbonyl-paclitaxel]
Oral Efficacy vs. Sc A2780 Log Cell Kill [1]: 4.4
Oral Efficacy vs. Sc A2780 (Cures/Treated) [1]: 0/8

COC(=O)OC12COC1CC(O)C1(C)C(=O)C(OC(C)=O)C3=C(C)C(OC(=O)C(O)C(NC(=O)OC4CCCCC4)C(C)(C)C)CC(O)(C(OC(=O)c4ccccc4)C21)C3(C)C (centres unmarked) [Ie, 3′-tert-Butyl-3′-N-cyclohexyloxycarbonyl-4-deacetyl-3′-dephenyl-3′-N-debenzoyl-4-O-methoxycarbonyl-paclitaxel]
Oral Efficacy vs. Sc A2780 Log Cell Kill [1]: 1.5
Oral Efficacy vs. Sc A2780 (Cures/Treated) [1]: 0/8

COC(=O)O[C@@]12CO[C@@H]1C[C@H](O)[C@@]1(C)C(=O)[C@H](OC(C)=O)C3=C(C)[C@@H](OC(=O)[C@H](O)[C@@H](NC(=O)CC(C)(C)C)C(C)(C)C)C[C@@](O)([C@@H](OC(=O)c4ccccc4)[C@H]21)C3(C)C [If, 3′-tert-Butyl-4-deacetyl-3′-dephenyl-3′-N-debenzoyl-3′-N-neopentylcarbonyl-4-O-methoxycarbonyl-paclitaxel]
Oral Efficacy vs. Sc A2780 Log Cell Kill [1]: 1.8
Oral Efficacy vs. Sc A2780 (Cures/Treated) [1]: 0/8

COC(=O)OC12COC1CC(O)C1(C)C(=O)C(OC(C)=O)C3=C(C)C(OC(=O)C(O)C(NC(=O)OC(C)(C)C)C(C)C)CC(O)(C(OC(=O)c4ccccc4)C21)C3(C)C (centres unmarked) [Ib, 3′-N-tert-Butyloxycarbonyl-4-deacetyl-3′-dephenyl-3′-N-debenzoyl-3′-isopropyl-4-O-methoxycarbonyl-paclitaxel]
Oral Efficacy vs. Sc A2780 Log Cell Kill [1]: 3.0
Oral Efficacy vs. Sc A2780 (Cures/Treated) [1]: 1/8

CC(=O)O[C@H]1C(=O)[C@@]2(C)[C@H]([C@H](OC(=O)c3ccccc3)[C@]34OC(=O)O[C@H]3[C@H](OC(=O)[C@H](O)[C@H](CC(C)C)NC(=O)OC(C)(C)C)C(C)=C1C4(C)C)[C@]1(OC(C)=O)CO[C@@H]1C[C@@H]2O [IDN-5109]
Oral activity against tumors in mice (tumors in mice): oral activity against tumors in mice

3′-N-Cyclobutyl-4-deacetyl-3′-N-debenzoyl-4-O-methoxycarbonyi-paciitaxel [Id]
Oral Efficacy vs. Sc A2780 Log Cell Kill [1]: 4.1
Oral Efficacy vs. Sc A2780 (Cures/Treated) [1]: 0/8

COC(=O)OC12COC1CC(O)C1(C)C(=O)C(OC(C)=O)C3=C(C)C(OC(=O)C(O)C(NC(=O)c4ccco4)C(C)(C)C)CC(O)(C(OC(=O)c4ccccc4)C21)C3(C)C (centres unmarked) [Ik, 3′-N-Debenzoyl-3′-N-(2-furoyl)-3′-dephenyl-3′-tert-butyl-4-deacetyl-4-methoxycarbonyl Paclitaxel]
Oral Efficacy vs. Sc A2780 Log Cell Kill [1]: 2.2
Oral Efficacy vs. Sc A2780 (Cures/Treated) [1]: 0/8

CC(=O)O[C@@]12CO[C@@H]1C[C@H](O)[C@@]1(C)C(=O)[C@H](O)C3=C(C)[C@@H](OC(=O)[C@H](O)[C@@H](NC(=O)OC(C)(C)C)c4ccccc4)C[C@@](O)([C@@H](OC(=O)c4ccccc4)[C@H]21)C3(C)C [TAXOTERE®, docetaxel]
Oral activity in human or animal models (human or animal models): no oral activity

COC(=O)O[C@@]12CO[C@@H]1C[C@H](O)[C@@]1(C)C(=O)[C@H](OC(C)=O)C3=C(C)[C@@H](OC(=O)[C@H](O)[C@@H](NC(=O)C4CCC4)C(C)(C)C)C[C@@](O)([C@@H](OC(=O)c4ccccc4)[C@H]21)C3(C)C [Ij, 3′-N-Debenzoyl-3′-N-cyclobutylcarbonyl-3′-dephenyl-3′-tert-butyl-4-deacetyl-4-methoxycarbonyl Paclitaxel]
Oral Efficacy vs. Sc A2780 Log Cell Kill [1]: 2.1
Oral Efficacy vs. Sc A2780 (Cures/Treated) [1]: 0/8

COC(=O)O[C@@]12CO[C@@H]1C[C@H](O)[C@@]1(C)C(=O)[C@H](OC(C)=O)C3=C(C)[C@@H](OC(=O)[C@H](O)[C@@H](NC(=O)OC(C)(C)C)c4ccccc4)C[C@@](O)([C@@H](OC(=O)c4ccccc4)[C@H]21)C3(C)C [Ig, 4-Deacetyl-3′-N-debenzoyl-3′-N-tertbutoxycarbonyl 4-O-methoxycarbonyl-paclitaxel]
Oral Efficacy vs. Sc A2780 Log Cell Kill [1]: 0.9
Oral Efficacy vs. Sc A2780 (Cures/Treated) [1]: 0/8

COC(=O)OC12COC1CC(O)C1(C)C(=O)C(OC(C)=O)C3=C(C)C(OC(=O)C(O)C(NC(=O)CC(C)(C)C)c4ccccc4)CC(O)(C(OC(=O)c4ccccc4)C21)C3(C)C (centres unmarked) [Ic, 3′-N-Neopentylcarbonyl-4-deacetyl-3′-N-debenzoyl-4-O-methoxycarbonyl-paclitaxel]
Oral Efficacy vs. Sc A2780 Log Cell Kill [1]: 3.8
Oral Efficacy vs. Sc A2780 (Cures/Treated) [1]: 0/8

— patent publication US6750246B1, “C-4 carbonate taxanes” (Bristol-Myers Squibb Company, priority 2000, dated 2004)
